From article PMC5674494, “Use of Cyclic Backbone NGR-Based SPECT to Increase Efficacy of Postmyocardial Infarction Angiogenesis Imaging” (Contrast Media & Molecular Imaging, 2017)

What was measured:
in vitro = in vitro ADME; conditions: human, whole blood
Description: ^111[…], or ^111In-co(NGR)4 was added to […] human blood in heparin (BD Biosciences, […], The Netherlands). Blood stability was tested at 0, 10, 30, and 50 min. For each time point imaging agents were separated from blood cells and proteins by adding 0.5 mL MeCN (VWR International BV, Breda, The Netherlands) to 0.5 mL blood sample followed by centrifugation (2,000 ×g, 3 min). Supernatant samples were analyzed by HPLC using the above-mentioned method.

[1] = Octanol/water partition coefficient (logP); format: physicochemical; conditions: 111In-labeled tracer, separate experiment 2 of 3, N = 3, method as ref 22
Description: The logP value of each compound was determined in three separate experiments as described previously.

CD13 = target: T1, CD13 (Mus musculus, UniProt P97449); assay: Dual-isotope micro-SPECT, SUV of 111In-labeled NGR tracers in heart segments of MI mice; format: in vivo, Swiss mice; conditions: MI mice 7 days after LAD ligation, mean ± SEM
T1 construct: the level of CD13 expression was markedly higher in the infarcted myocardium of MI animals; from tissue; host or cells: heart (myocardium) of living Swiss mice, 7 days after MI
T1 sequence (P97449 1-966): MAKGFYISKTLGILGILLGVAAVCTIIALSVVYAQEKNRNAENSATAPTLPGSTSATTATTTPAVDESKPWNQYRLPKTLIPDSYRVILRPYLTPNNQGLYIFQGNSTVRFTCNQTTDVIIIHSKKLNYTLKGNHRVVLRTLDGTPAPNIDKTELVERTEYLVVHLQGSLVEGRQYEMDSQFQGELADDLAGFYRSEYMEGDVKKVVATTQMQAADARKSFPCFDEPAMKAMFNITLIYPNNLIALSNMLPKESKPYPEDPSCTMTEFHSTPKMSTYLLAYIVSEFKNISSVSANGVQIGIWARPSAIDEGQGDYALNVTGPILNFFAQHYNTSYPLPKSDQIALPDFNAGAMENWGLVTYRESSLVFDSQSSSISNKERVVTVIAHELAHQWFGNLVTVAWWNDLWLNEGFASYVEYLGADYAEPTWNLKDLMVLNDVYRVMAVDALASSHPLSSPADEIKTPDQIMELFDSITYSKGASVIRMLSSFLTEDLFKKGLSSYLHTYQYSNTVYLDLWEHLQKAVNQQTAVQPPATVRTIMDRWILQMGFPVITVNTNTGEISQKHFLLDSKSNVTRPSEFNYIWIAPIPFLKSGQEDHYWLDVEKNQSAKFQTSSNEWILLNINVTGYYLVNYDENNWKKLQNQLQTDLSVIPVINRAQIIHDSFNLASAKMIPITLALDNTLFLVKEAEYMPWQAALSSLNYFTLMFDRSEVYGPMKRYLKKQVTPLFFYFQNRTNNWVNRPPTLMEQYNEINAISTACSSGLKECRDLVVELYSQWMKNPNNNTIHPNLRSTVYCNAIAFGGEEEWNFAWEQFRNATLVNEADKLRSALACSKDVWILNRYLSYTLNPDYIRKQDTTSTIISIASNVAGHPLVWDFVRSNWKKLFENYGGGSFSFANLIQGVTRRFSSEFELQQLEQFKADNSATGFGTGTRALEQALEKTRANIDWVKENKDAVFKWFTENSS
Description: (§1) In 10–12-week-old male Swiss mice, we induced MI by ligation of the left anterior descending coronary artery (LAD) as described before to test coNGR (n = 5) or co(NGR)4 (n = 8). A group of sham-operated Swiss mice (n = 5) was used as control. SPECT imaging was performed 7 days after MI or sham surgery. All animals were held under the guidelines of the animal care facility (Maastricht University). All animal experiments were approved by the Committee for Animal Welfare of Maastricht University.
Mice were anesthetized with isoflurane (induction 2.5%; maintenance 1.5%), a catheter was placed in a tail vein, and animals were positioned in the SPECT camera (MILabs, Utrecht, The Netherlands). Prior to image acquisition, a bolus injection of ^99mTc-sestamibi and ^111In-coNGR or ^111In-co(NGR)4 was given intravenously (i.v.) in a maximum volume of 200 µL. Table S1 in Supplementary Material available online at https://doi.org/10.1155/2017/8638549 provides an overview of the average injected dose. Immediately after injection, 4 consecutive time frames of 15 min each were acquired. For image quantification we used the last of these frames.
Acquired list mode data was reconstructed using MILabs reconstruction software (version 2.51) employing the POS-EM algorithm (6 iterations and 16 subsets, reconstructed at a voxel size of 0.4 mm). ^99mTc and ^111In images were reconstructed by selecting photo peak and background energy levels as described before.
To allow quantification of imaging agent uptake, in vivo isotope-specific conversion factors (CF) were determined for the 0.6 mm collimator in a representative phantom with a known activity. Using the previously described method the following conversion factors (CF), CF99mTc 612 MBq/mL and CF111In 643 MBq/mL, were found.
PMOD 3.7 cardiac tool PCARD (PMOD technologies, Zürich, Switzerland) was used to segment the heart in the 17-segment model. Uptake per segment was subsequently expressed as a mean standardized uptake value (SUVmean), also using the previously described method. For body weight, we assumed that 1 g equalled 1 mL.

[2] = parameters: species or system Swiss mice; conditions: mouse, in vivo
Description: as §1, with “University. After imaging, the vital organs were harvested and kept for gamma-counting (Wallac Wizard, Turku, Finland). Acquired data were expressed as percentage injected dose per gram tissue (% ID/g).” for “University.”

[3] = 111In tracer i.v., last of 4 15-min SPECT frames, SUVmean, 17-segment model, n = 5 coNGR, n = 8 co(NGR)4
[4] = 111In-labeled tracer i.v., last of 4 consecutive 15 min SPECT frames

Q: Which remaining at 50 min (in vitro) does the source give for `N=C(N)NCCC[C@@H]1NC(=O)CNC(=O)[C@H](CC(N)=O)NC(=O)[C@H](CSC2CC(=O)N(CC3CCC(C(=O)NCCCC[C@H](NC(=O)C4CCC(CN5C(=O)CC(SC[C@@H]6NC(=O)CNC(=O)[C@H](CCCNC(=N)N)NC(=O)CNC(=O)[C@H](CC(N)=O)NC6=O)C5=O)CC4)C(=O)NCCCC[C@H](NC(=O)[C@H](CCCCNC(=O)C4CCC(CN5C(=O)CC(SC[C@@H]6NC(=O)CNC(=O)[C@H](CCCNC(=N)N)NC(=O)CNC(=O)[C@H](CC(N)=O)NC6=O)C5=O)CC4)NC(=O)C4CCC(CN5C(=O)CC(SC[C@@H]6NC(=O)CNC(=O)[C@H](CCCNC(=N)N)NC(=O)CNC(=O)[C@H](CC(N)=O)NC6=O)C5=O)CC4)C(=O)N[C@@H](CCCCNC(=O)[C@@H](N)CSC4CC(=O)N(CC5CCC(C(=O)NCCCCC(C(=O)O)N(CCN(CC(=O)O)CC(=O)O)CCN(CC(=O)O)CC(=O)O)CC5)C4=O)C(N)=O)CC3)C2=O)NC(=O)CNC1=O` (some centres unmarked) [co(NGR)4] here?
A: The remaining at 50 min was 25.3%.

Q: What about the logP2 [1] of the same compound?
A: Its logP2 is −3.64 ± 0.03.

Q: What about the “SUV of NGR imaging agent, segment 1. Basal anterior” value (CD13; [3]) of the same compound?
A: Its value is 0.37 ± 0.06.

Q: And the “SUV of NGR imaging agent, segment 2. Basal anteroseptal” value (CD13; [3])?
A: Its value is 0.37 ± 0.05.

Q: What about the “SUV of NGR imaging agent, segment 3. Basal inferoseptal” value (CD13; [3]) of the same compound?
A: Its value is 0.40 ± 0.05.

Q: And the “SUV of NGR imaging agent, segment 4. Basal inferior” value (CD13; [3])?
A: The value was 0.41 ± 0.06.

Q: What about the “SUV of NGR imaging agent, segment 5. Basal inferolateral” value (CD13; [3]) of the same compound?
A: The value was 0.46 ± 0.07.

Q: What about the “SUV of NGR imaging agent, segment 6. Basal anterolateral” value (CD13; [3]) of the same compound?
A: Its value is 0.40 ± 0.07.

Q: And the “SUV of NGR imaging agent, segment 7. Mid anterior” value (CD13; [3])?
A: Its value is 0.32 ± 0.04.

Q: What about the “SUV of NGR imaging agent, segment 8. Mid anteroseptal” value (CD13; [3]) of the same compound?
A: The value was 0.36 ± 0.03.

Q: And the “SUV of NGR imaging agent, segment 9. Mid inferoseptal” value (CD13; [3])?
A: The value was 0.59 ± 0.06.

Q: What about the “SUV of NGR imaging agent, segment 10. Mid inferior” value (CD13; [3]) of the same compound?
A: Its value is 0.56 ± 0.08.

Q: And the “SUV of NGR imaging agent, segment 11. Mid inferolateral” value (CD13; [3])?
A: Its value is 0.44 ± 0.07.

Q: And the “SUV of NGR imaging agent, segment 12. Mid anterolateral” value (CD13; [3])?
A: Its value is 0.40 ± 0.05.

Q: What about the “SUV of NGR imaging agent, segment 13. Apical anterior” value (CD13; [3]) of the same compound?
A: The value was 0.54 ± 0.07.

Q: What about the “SUV of NGR imaging agent, segment 14. Apical septal” value (CD13; [3]) of the same compound?
A: The value was 0.80 ± 0.09.

Q: What about the “SUV of NGR imaging agent, segment 15. Apical inferior” value (CD13; [3]) of the same compound?
A: Its value is 0.82 ± 0.08.

Q: And the “SUV of NGR imaging agent, segment 16. Apical lateral” value (CD13; [3])?
A: Its value is 0.54 ± 0.06.

Q: What about the “SUV of NGR imaging agent, segment 17. Apex” value (CD13; [3]) of the same compound?
A: The value was 0.76 ± 0.10.

Q: And the “SUV in segments affected by MI” value (CD13; [4])?
A: The value was 0.57 ± 0.03.

Q: And the “SUV in segments not affected by MI” value (CD13; [4])?
A: Its value is 0.43 ± 0.02.

Q: What about the kidney uptake [2] of the same compound?
A: Its kidney uptake is “Substantial kidney uptake”.

Q: And the urinary excretion ([2]; iv)?
A: The urinary excretion was 54.9 ± 9.1 % ID/g.
